Measurements from patent US20080188524A1, “Methods of treating pain” (priority 2006, published 2008).
Where “and” joins values, the source holds several entries; their conditions need not be identical. Equal values may be shown once. Entries after “also recorded” stand apart in the source; their conditions may differ.

Assays:
[1] = test system: SNI mice (mechanical allodynia); assay: Spared nerve injury (SNI) model, von Frey assay; assay type: in vivo, mice (strain C3HeB/FeJ); details: 30 mg/kg i.p., day 21 post SNI
Description: The spared nerve injury model (SNI model, as developed by Decosterd and Woolf (2000), see FIG. 1) is characterized by the induction of clinically relevant nerve lesions and after surgical intervention, subsequent behavioral experiments (e.g., von Frey Assay). Said model constitutes a common nerve injury model which consists of ligation and section of two branches of the sciatic nerve (namely tibial and common peroneal nerves) leaving the sural nerve intact. The SNI model results in early (less than 24 hours), prolonged and substantial changes in mechanical and cold sensitivity that closely mimic the features of clinical neuropathic pain. […] As outlined above, the spared nerve injury (SNI) model (see FIG. 1) involves a lesion of two of the three terminal branches of the sciatic nerve (tibial and common peroneal nerves) of experimental animals, leaving the sural nerve intact. SNI results in mechanical and thermal allodynia in the non-injured sural nerve skin territory (Decosterd and Woolf, Pain 2000; 87:149-158. (2) Tsujino et al., Mol. Cel. Neurosci. 2000; 15:170-182). Wildtype mice (strain […]/FeJ) (age, sex and weight matched) are anesthetized with Hypnorm (0.315 mg/ml fentanyl citrate +10 mg/ml fluanisone; Janssen)/Hypnovel (5 mg/ml midazolam; Roche Applied Sciences)/water at a ratio of 1:1:2 at 4 μl/g prior to surgical preparation. Subsequently, an incision is made under aseptic precautions in the ipsi-lateral right hind leg of all mice just above the level of the knee, exposing the three terminal branches of the sciatic nerve: the common peroneal, tibial, and sural nerves. The common peroneal and tibial nerves are ligated tightly with 7/0 silk and sectioned distal to the ligation removing 2 mm of distal nerve stump. The sural branch remains untouched during the procedure (denoted herein “SNI ipsi”). […] Reflex nociceptive responses to mechanical stimulation were measured in a von Frey assay 30 min after each injection. […] Mechanical thresholds of SNI mice are quantified using the up-down method based on Chaplan et al. (1994) and Malmberg and Basbaum (1998). […]

[2] = test system: LPS or SEB induced TNF α in human whole blood; assay: tissue or blood; assay type: cell-based
[3] = test system: carrageenan-treated mice (paw edema); assay: Carrageenan assay in mice, paw edema; assay type: in vivo; details: within the observation period, all treated animals
Procedure: For the carrageenan assay a subcutaneous injection of 25 μl of 1% carrageenan (in saline) into a single hind paw (ipsi-lateral paw) of mice is applied. Subsequent inflammation results in long lasting swelling and hypersensitivity (against mechanical and thermal stimuli) of the paw. The carrageenan assay is a standard laboratory assay used to predict anti-inflammatory activity of test compounds. Paw edema measurements and Hargreaves Assay (withdrawal of paws due to thermal stimulation via a light source) are used for read out. The model of carrageenan induced paw edema is a standard laboratory assay used to predict anti-inflammatory activity and reduction of inflammation-induced pain perception of respective compounds. The following protocol describes one possible way to conduct the experiment. The basic measurement constitutes in the measurement of edema and mechanical as well as thermal hypersensitivity in response to irritants, such as carrageenan. […] Paw edema induced by carrageenan injection are detected by increased paw size measured from dorsal to plantar at the metatarsus region of the injected (ipsi-lateral) paws. Sizes of ipsi- and contra-lateral paws serve as surrogate markers for inflammation and are measured at several time points after carrageenan injection: before injection (-1), 2 […] […]

[4] = test system: TNFα and IL6 expression in LPS induced THP-1 macrophages; assay: In vitro THP-1 assay, LPS-induced cytokine expression (ELISA); assay type: cell-based, human
Procedure: The human THP-1 cell line can be utilized as an in vitro model of cytokine expression as mediated by Lipopolysaccharide (LPS) or Tumor Necrosis Factors [TNFα]. Monocytic THP-1 cells (ATCC; TIB-202) can be differentiated into macrophage-like cells expressing pro-inflammatory cytokines like TNFα, IL6 and IL1β upon induction with LPS or by TNFα (autocrine induction) itself. THP-1 cells are grown in modified RPMI-1640medium (ATCC, Cat. No. 30-2001) supplemented with 10% FCS and 1% Pen/Strep. For cytokine inhibition assays, cells are seeded at a density of 5×10^5 cells/ml into 6-well plates in standard growth medium supplemented with 100 ng/ml PMA (Sigma, P1585) to induce differentiation into macrophage-like cells. After 24 hours, the medium is replaced with standard growth medium (without PMA) and the cells are incubated for another 48 hours to complete differentiation. […] Cells are incubated for 60 min with compounds prior to stimulation with 100 ng/ml LPS (Sigma, L2630) for another 4-48 hours. Supernatants are collected and assayed immediately for cytokine expression, e.g. for TNFα, IL-6 and IL-1b using commercially available sandwich ELISA assays (eBioscience, Cat. No 88-7346, 88-7066, 88-7010) or kept frozen at […] until evaluation. Concentrations of TNFα, IL6 and IL1β within the cell culture supernatants are measured by using commercial ELISA Kits (eBioscience) according to the manufacturer's instructions. CDK-inhibitory compounds according to any one of general Formula I, II or III are administered to differentiated THP-1 cells in triplicates as described above (see section 2.). After 60 min of pre-incubation with test or reference compound (SB203580, a p38 inhibitor and BMS345541, an IKK-inhibitor) alone, cells are stimulated with LPS. After incubation for 4-48 h, supernatants are collected and ELISA based determinations of cytokine supernatant concentrations are performed as described in section 3, supra. […] After 60 min of pre-incubation with test or reference compound (a p38 inhibitor and an IKK-inhibitor, respectively) alone, cells were stimulated with LPS. […]

[5] = LPS-stimulated differentiated THP-1 cells, ELISA

## CC(C)(C)c1cnc(CSc2cnc(NC(=O)C3CCNCC3)s2)o1 [compound #16 of Table 1, N-[5-[[[5-(1,1-dimethylethyl)-2-oxazolyl]-methyl]thio]-2-thiazolyl]-4-piperidinecarboxamide]
[1]; 30 min prior to von Frey measurement, ipsi-lateral paw
  effect on mechanical allodynia of SNI mice (von Frey): hypoalgesic effect; also recorded: significant amelioration of allodynia
[1]; contra-lateral paw
  contra-lateral paws, effect of pharmacological treatment (von Frey): unaffected
[1]; ipsi-lateral paw, all treated animals
  von Frey threshold values: significant increase of threshold values
[2]
  reduction of TNF α levels: 89% and 85% and 78%
[2]; Homo sapiens, read-out: IC50 (TNF α reduction), deduced from the data
  IC50: < 500 nM
[3]
  ipsi-lateral paw edema compared to vehicle control group: reduced paw edema
[4]; 3 μM, LPS-induced THP-1 cells
  TNFα signal compared to DMSO (vehicle control): 50%
[4]; [5]
  effect on IL6 protein concentration in the cell supernatant versus vehicle (DMSO): significant inhibitory effect
  effect on TNFα protein concentration in the cell supernatant versus vehicle (DMSO): significant inhibitory effect
